Like-named read-outs stand apart in the source and are kept apart here.
Details: pyrophosphate 25 ppm; for Time of Crystal Growth Inhibition: no anticalculus agent, pH 7.20, 25° C.
Description: The in vitro formation of hydroxyapatite (HAP) was measured titrimetrically using the pH - stat method described in Example I, above.
The pyrophosphate was used at the level of 25 ppm.

In the case of O=P(O)(O)OP(=O)(O)O [pyrophosphate], the “effectiveness of pyrophosphate when incubated with enzyme (in words)” value (absence of anticalculus agent polymer, with enzyme) is reported as “drastically reduced”, the “Time of Crystal Growth Inhibition” value (pyrophosphatase No) is reported as 30 min and the “Time of Crystal Growth Inhibition” value (pyrophosphatase Yes) is reported as 11 min. The “delay of HAP formation (in words)” value (no enzyme) was “significantly delays HAP forma;tion”.

— patent publication US4842847A, “Dental calculus inhibiting compositions” (The B. F. Goodrich Company, priority 1987, dated 1989)
